According to article PMC6934184, “Selective DNA-PKcs inhibition extends the therapeutic index of localized radiotherapy and chemotherapy” (The Journal of Clinical Investigation, 2019):

Biological target: T1, AURKB (Aurora B) (Homo sapiens, UniProt Q96GD4)
T1 construct: purchased Thermo Fisher Scientific (Life Technologies) SelectScreen
Assay: SelectScreen Z'LYTE
Assay type: biochemical
Procedure, shortened: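 NU5455 was profiled across the SelectScreen Broad panel of kinase activity and binding assays. Z'LYTE reactions such as CSF1R ran at apparent Km ATP, while the Adapta CAMK1 assay used ATP listed as 10. Values are given as percent.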

T1 sequence (Q96GD4 whole entry): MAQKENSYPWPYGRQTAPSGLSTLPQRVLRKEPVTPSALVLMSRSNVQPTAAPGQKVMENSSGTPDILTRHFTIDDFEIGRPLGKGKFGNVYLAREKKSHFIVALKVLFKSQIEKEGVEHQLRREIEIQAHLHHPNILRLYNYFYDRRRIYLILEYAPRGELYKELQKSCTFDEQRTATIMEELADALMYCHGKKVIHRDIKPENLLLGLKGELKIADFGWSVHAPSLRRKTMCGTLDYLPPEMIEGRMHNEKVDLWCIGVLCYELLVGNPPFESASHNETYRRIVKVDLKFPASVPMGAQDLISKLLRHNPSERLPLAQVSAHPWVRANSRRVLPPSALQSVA

Structure (SMILES): CN(C(=O)CN1CCOCC1)c1ccc2sc3c(-c4cccc5c(=O)cc(N6CC7CCC(C6)O7)oc45)cccc3c2c1 [NU5455]
- inhibition at 1 µM: 1.7%
